Reference: patent US20240132431A1, “METHOD FOR ALKYLATING ACIDIC FUNCTIONAL GROUP” (Chugai Seiyaku Kabushiki Kaisha, priority 2021, published 2024)
Each block holds one molecule with its values, some of them ahead of it.

Molecular target: T1, Bcl-2 protein (Recombinant Human Bcl-2 Protein) (Homo sapiens, UniProt P10415)
T1 construct: purchased Novus NBP2-34889
Experiment: Binding evaluation of mixture library compounds to Bcl-2 using AS-MS (affinity selection mass spectrometry)
Settings: for ASMS ratio (%) n = 1 / ASMS ratio (%) n = 2: ASMS Ratio(%)=(A−C)/B×100; for ASMS ratio (%) n = 1: replicate n = 1; for ASMS ratio (%) n = 2: replicate n = 2
Outline: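 Pooled library of ~1200 compounds ([…] each, final) incubated with recombinant human Bcl-2 (20 μM final) in Tris-HCl pH 7.4, NaCl, Tween-20, DTT buffer, dark, 23° C., 1 h. Bound fraction recovered by SEC spin column, organic extraction, reversed-phase LC/MS. ASMS Ratio (%) = (A−C)/B×100 versus protein-free standard and SEC blank.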

[1] = AS-MS on the mixture of 1200 library compounds
[2] = AS-MS, mixture of 1200 compounds, Bcl-2

T1 sequence (P10415 whole entry): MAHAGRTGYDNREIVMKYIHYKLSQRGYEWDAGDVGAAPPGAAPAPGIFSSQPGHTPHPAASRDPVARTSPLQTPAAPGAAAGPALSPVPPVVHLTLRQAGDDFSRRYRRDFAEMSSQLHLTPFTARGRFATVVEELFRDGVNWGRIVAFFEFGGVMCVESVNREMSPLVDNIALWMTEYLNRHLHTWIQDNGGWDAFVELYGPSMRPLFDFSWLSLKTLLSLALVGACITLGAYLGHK

- ASMS ratio (%) n = 1 [1]: 0.0%
- ASMS ratio (%) n = 2 [1]: 0.0%
SMILES: CCOc1cccc(-c2cnn(-c3cc(C(=O)N4CCN(c5ccc(C(=O)N(CC)CC)nn5)CC4)cc(C(F)(F)F)c3)c2)c1 [B4J021-01, 6-[4-[3-[4-(3-Ethoxyphenyl)pyrazol-1-yl]-5-(trifluoromethyl)benzoyl]piperazin-1-yl]-N,N-diethylpyridazine-3-carboxamide]

- ASMS ratio (%) n = 1 [2]: 3.2%
- ASMS ratio (%) n = 2 [2]: −4.7%
SMILES: CCOc1cccc(-c2ccc(CN3CCN(c4ccc(C(=O)NCC56CC7CC(CC(C7)C5)C6)nn4)CC3)cc2C)c1 [B1A073-01, N-(1-Adamantylmethyl)-6-[4-[[4-(3-ethoxyphenyl)-3-methylphenyl]methyl]piperazin-1-yl]pyridazine-3-carboxamide]

- ASMS ratio (%) n = 1 [1]: −1.1%
- ASMS ratio (%) n = 2 [1]: −0.8%
SMILES: CCOc1cncc(-c2ccccc2CCC(=O)N2CCN(c3ccc(C(=O)N(CC)CC)nn3)CC2)c1 [B4J012-01, 6-[4-[3-[2-(5-Ethoxypyridin-3-yl)phenyl]propanoyl]piperazin-1-yl]-N,N-diethylpyridazine-3-carboxamide]

- ASMS ratio (%) n = 1 [2]: −3.3%
- ASMS ratio (%) n = 2 [2]: 1.5%
SMILES: CCOc1cccc(-c2ccc(CN3CCN(c4ccc(C(=O)NCC(F)(F)F)cc4)CC3)c(CC)c2)c1 [B1K049-01, 4-[4-[[4-(3-Ethoxyphenyl)-2-ethylphenyl]methyl]piperazin-1-yl]-N-(2,2,2-trifluoroethyl)benzamide]

- ASMS ratio (%) n = 1 (AS-MS, mixture library, Bcl-2): 0.0%
- ASMS ratio (%) n = 2 (AS-MS, mixture library, Bcl-2): 0.0%
SMILES: CCOc1cccc(-c2ccc(C(=O)N3CCN(c4ccc(C(=O)NS(C)(=O)=O)cc4)CC3)cc2C)c1 [B2I025-01, 4-[4-[4-(3-Ethoxyphenyl)-3-methylbenzoyl]piperazin-1-yl]-N-methylsulfonylbenzamide]

- ASMS ratio (%) (n = 2): 0.0%
SMILES: CCOc1cccc(C#Cc2ccccc2C(=O)N2CCN(c3ccc(C(=O)NS(=O)(=O)c4ccc(NCCSc5ccccc5)c(C(F)(F)F)c4)cc3)CC2)c1 [B2R029-01, 4-[4-[2-[2-(3-Ethoxyphenyl)ethynyl]benzoyl]piperazin-1-yl]-N-[4-(2-phenylsulfanylethylamino)-3-(trifluoromethyl)phenyl]sulfonylbenzamide]

- ASMS ratio (%) (n = 1): 0.0%
- ASMS ratio (%) (n = 2): 0.0%
SMILES: CCOc1cccc(-c2ccc(CN3CCN(c4ccc(C(=O)NS(=O)(=O)CCC(F)(F)F)nn4)CC3)cc2C)c1 [B2N073-01, 6-[4-[[4-(3-Ethoxyphenyl)-3-methylphenyl]methyl]piperazin-1-yl]-N-(3,3,3-trifluoropropylsulfonyl)pyridazine-3-carboxamide]

- ASMS ratio (%) (n = 1): 12.3%
- ASMS ratio (%) (n = 2): 18.5%
SMILES: CCOc1cccc(C#Cc2ccccc2CN2CCN(c3ccc(C(=O)NS(=O)(=O)c4ccc(NCCSc5ccccc5)c(C(F)(F)F)c4)cc3)CC2)c1 [B2R069-01, 4-[4-[[2-[2-(3-Ethoxyphenyl)ethynyl]phenyl]methyl]piperazin-1-yl]-N-[4-(2-phenylsulfanylethylamino)-3-(trifluoromethyl)phenyl]sulfonylbenzamide]

SMILES: CCOc1cccc(-c2cc(CN3CCN(c4ccc(C(=O)N(CC)CC)cc4)CC3)cc(OC(C)C)c2)c1 [B4J057-01, 4-[4-[[3-(3-Ethoxyphenyl)-5-propan-2-yloxyphenyl]methyl]piperazin-1-yl]-N,N-diethylbenzamide]
- ASMS ratio (%) n = 1 [1]: 5.3%
- ASMS ratio (%) n = 2 [1]: −0.1%

- ASMS ratio (%) (n = 1): 3.8%
- ASMS ratio (%) (n = 2): 0.3%
SMILES: CCOc1cccc(-c2ccc(CN3CCN(c4ccc(C(=O)NS(=O)(=O)c5ccc(NCCSc6ccccc6)c(C(F)(F)F)c5)cc4)CC3)c3ccccc23)c1 [B2R065-01]

- ASMS ratio (%) n = 1 [2]: 12.5%
- ASMS ratio (%) n = 2 [2]: −8.5%
SMILES: CCOc1cncc(C#Cc2cc(C(=O)N3CCN(c4ccc(C(=O)NCC56CC7CC(CC(C7)C5)C6)cc4)CC3)cc(C(F)(F)F)c2)c1 [B1A042-01, N-(1-Adamantylmethyl)-4-[4-[3-[2-(5-ethoxypyridin-3-yl)ethynyl]-5-(trifluoromethyl)benzoyl]piperazin-1-yl]benzamide]

- ASMS ratio (%) (n = 1): 0.0%
- ASMS ratio (%) (n = 2): 0.0%
SMILES: CCOc1cccc(-c2csc(CN3CCN(c4ccc(C(=O)NS(=O)(=O)CCC(F)(F)F)cc4)CC3)c2)c1 [B2N067-01, 4-[4-[[4-(3-Ethoxyphenyl)thiophen-2-yl]methyl]piperazin-1-yl]-N-(3,3,3-trifluoropropylsulfonyl)benzamide]

- ASMS ratio (%) n = 1 [2]: 0.3%
- ASMS ratio (%) n = 2 [2]: 0.0%
SMILES: CCCNC(=O)c1ccc(N2CCN(Cc3cc(OC(F)(F)F)cc(-c4cccc(OCC)c4)c3)CC2)nn1 [B1M033-01]

- ASMS ratio (%) (n = 2): 0.0%
SMILES: CCOc1cccc(-c2csc(C(=O)N3CCN(c4ccc(C(=O)NS(=O)(=O)CCC(F)(F)F)nn4)CC3)c2)c1 [B2N001-01, 6-[4-[4-(3-Ethoxyphenyl)thiophene-2-carbonyl]piperazin-1-yl]-N-(3,3,3-trifluoropropylsulfonyl)pyridazine-3-carboxamide]

- ASMS ratio (%) n = 1 [1]: 4.4%
- ASMS ratio (%) n = 2 [1]: 1.1%
SMILES: CCOc1cncc(-c2ccc(CN3CCN(c4ccc(C(=O)Nc5ccc(OC)cc5)nn4)CC3)c(CC)c2)c1 [B1O076-01, 6-[4-[[4-(5-Ethoxypyridin-3-yl)-2-ethylphenyl]methyl]piperazin-1-yl]-N-(4-methoxyphenyl)pyridazine-3-carboxamide]

- ASMS ratio (%) n = 1 [2]: 0.0%
- ASMS ratio (%) n = 2 [2]: 0.0%
SMILES: CCOc1cccc(C#Cc2cc(C(=O)N3CCN(c4ccc(C(=O)NCC(F)(F)F)nn4)CC3)cc(C(F)(F)F)c2)c1 [B1K019-01, 6-[4-[3-[2-(3-Ethoxyphenyl)ethynyl]-5-(trifluoromethyl)benzoyl]piperazin-1-yl]-N-(2,2,2-trifluoroethyl)pyridazine-3-carboxamide]

SMILES: CCOc1cccc(-c2ccc(C(=O)N3CCN(c4ccc(C(=O)N(CC)CC)cc4)CC3)c3ccccc23)c1 [B4J035-01, 4-[4-[4-(3-Ethoxyphenyl)naphthalene-1-carbonyl]piperazin-1-yl]-N,N-diethylbenzamide]
- ASMS ratio (%) n = 1 [1]: 4.1%
- ASMS ratio (%) n = 2 [1]: 1.5%

- ASMS ratio (%) n = 1 (AS-MS, mixture library, Bcl-2): 0.0%
- ASMS ratio (%) n = 2 (AS-MS, mixture library, Bcl-2): 0.0%
SMILES: CCOc1cncc(-c2cc(OC)c(CN3CCN(c4ccc(C(=O)NS(=O)(=O)c5ccc(NCCSc6ccccc6)c([N+](=O)[O-])c5)cc4)CC3)c(OC)c2)c1 [B2Q060-01, 4-[4-[[4-(5-Ethoxypyridin-3-yl)-2,6-dimethoxyphenyl]methyl]piperazin-1-yl]-N-[3-nitro-4-(2-phenylsulfanylethylamino)phenyl]sulfonylbenzamide]

- ASMS ratio (%) n = 1 [2]: 3.6%
- ASMS ratio (%) n = 2 [2]: −4.2%
SMILES: CCOc1cccc(-c2ccc(CN3CCN(c4ccc(C(=O)NCC(F)(F)F)nn4)CC3)c3ccccc23)c1 [B1K091-01, 6-[4-[[4-(3-Ethoxyphenyl)naphthalen-1-yl]methyl]piperazin-1-yl]-N-(2,2,2-trifluoroethyl)pyridazine-3-carboxamide]

- ASMS ratio (%) n = 1 [1]: 3.5%
- ASMS ratio (%) n = 2 [1]: −6.7%
SMILES: CCOc1cncc(-c2cc(C(=O)N3CCN(c4ccc(C(=O)N(C)CC56CC7CC(CC(C7)C5)C6)cc4)CC3)cc(C(F)(F)F)c2)c1 [B3A040-01, N-(1-Adamantylmethyl)-4-[4-[3-(5-ethoxypyridin-3-yl)-5-(trifluoromethyl)benzoyl]piperazin-1-yl]-N-methylbenzamide]

- ASMS ratio (%) (n = 1): 0.0%
- ASMS ratio (%) (n = 2): 0.0%
SMILES: CCOc1cccc(-c2ccc(CN3CCN(c4ccc(C(=O)NS(=O)(=O)CCC(F)(F)F)nn4)CC3)c(OC)c2)c1 [B2N079-01]

- ASMS ratio (%) (n = 1): 1.2%
- ASMS ratio (%) (n = 2): 0.0%
SMILES: CCOc1cccc(-c2ccccc2CN2CCN(c3ccc(C(=O)NS(=O)(=O)C(C)(C)C)nn3)CC2)c1 [B2L071-01, N-tert-Butylsulfonyl-6-[4-[[2-(3-ethoxyphenyl)phenyl]methyl]piperazin-1-yl]pyridazine-3-carboxamide]

- ASMS ratio (%) n = 1 (AS-MS, mixture library, Bcl-2): 4.6%
- ASMS ratio (%) n = 2 (AS-MS, mixture library, Bcl-2): 4.4%
SMILES: CCOc1cccc(-c2ccc(CN3CCN(c4ccc(C(=O)NS(=O)(=O)CC56CC7CC(CC(C7)C5)C6)nn4)CC3)c(CC)c2)c1 [B2A075-01, N-(1-Adamantylmethylsulfonyl)-6-[4-[[4-(3-ethoxyphenyl)-2-ethylphenyl]methyl]piperazin-1-yl]pyridazine-3-carboxamide]

SMILES: CCOc1cncc(-c2cc(CN3CCN(c4ccc(C(=O)NS(=O)(=O)CCC(F)(F)F)cc4)CC3)cc(OCC)c2)c1 [B2N056-01]
- ASMS ratio (%) (n = 1): 0.0%
- ASMS ratio (%) (n = 2): 0.0%

- ASMS ratio (%) n = 1 [1]: 2.5%
- ASMS ratio (%) n = 2 [1]: 0.2%
SMILES: CCOc1cncc(-c2ccc(C(=O)N3CCN(c4ccc(C(=O)Nc5ccc(OC)cc5)nn4)CC3)c3ccccc23)c1 [B1O014-01, 6-[4-[4-(5-Ethoxypyridin-3-yl)naphthalene-1-carbonyl]piperazin-1-yl]-N-(4-methoxyphenyl)pyridazine-3-carboxamide]

- ASMS ratio (%) (n = 1): 0.0%
- ASMS ratio (%) (n = 2): 0.0%
SMILES: CCOc1cncc(-c2csc(C(=O)N3CCN(c4ccc(C(=O)NS(=O)(=O)CCC(F)(F)F)cc4)CC3)c2)c1 [B2N024-01, 4-[4-[4-(5-Ethoxypyridin-3-yl)thiophene-2-carbonyl]piperazin-1-yl]-N-(3,3,3-trifluoropropylsulfonyl)benzamide]

- ASMS ratio (%) n = 1 (AS-MS, mixture library, Bcl-2): 12.5%
- ASMS ratio (%) n = 2 (AS-MS, mixture library, Bcl-2): 15.3%
SMILES: CCOc1cccc(-c2ccc(C(=O)N3CCN(c4ccc(C(=O)NS(=O)(=O)c5ccc(NCCSc6ccccc6)c([N+](=O)[O-])c5)nn4)CC3)cc2F)c1 [B2Q005-01, 6-[4-[4-(3-Ethoxyphenyl)-3-fluorobenzoyl]piperazin-1-yl]-N-[3-nitro-4-(2-phenylsulfanylethylamino)phenyl]sulfonylpyridazine-3-carboxamide]
